US6737383B1, “Herbicidal oxadiazolidines” (priority 1999, dated 2004)

Legend:
winter wheat [1] = assay: Test E winter wheat; assay type: in vivo, Triticum aestivum; details: Preemergence; for Wheat (winter) plant response rating (0 to 100 scale): Rate 250 g/ha
green foxtail = assay: Test E green foxtail; assay type: in vivo, Setaria viridis; details: Preemergence; for Green foxtail plant response rating (0 to 100 scale): Rate 250 g/ha
pigweed = assay: Test B pre/postemergence pigweed; assay type: in vivo, Amaranthus retroflexus; details: for Redroot pigweed plant response rating (0 to 10 scale): 0 is no effect
How it was run: (§1)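 Herbicidal effect was estimated by eye on a ten-point control scale after plants spent twelve to sixteen days in a greenhouse following soil or foliar treatment. Foliar sprays targeted plants at one to four leaves; all doses were formulated in a non-phytotoxic solvent with surfactant.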

blackgrass = assay: Test E blackgrass; assay type: in vivo, Alopecurus myosuroides; details: Preemergence; for Blackgrass plant response rating (0 to 100 scale): Rate 250 g/ha
Italian ryegrass = assay: Test E Italian ryegrass; assay type: in vivo, Lolium multiflorum; details: Preemergence; for I. Ryegrass plant response rating (0 to 100 scale): Rate 250 g/ha
rape = assay: Test B pre/postemergence rape; assay type: in vivo, Brassica napus; details: for Rape plant response rating (0 to 10 scale): 0 is no effect
How it was run: as §1

wild oat = assay: Test E wild oat; assay type: in vivo, Avena fatua; details: Preemergence; for Wild oat plant response rating (0 to 100 scale): Rate 250 g/ha
sugar beet = assay: Test B pre/postemergence sugar beet; assay type: in vivo, Beta vulgaris; details: for Sugarbeets plant response rating (0 to 10 scale): 0 is no effect
How it was run: as §1

winter barley = assay: Test E winter barley; assay type: in vivo, Hordeum vulgare; details: Preemergence; for Barley (winter) plant response rating (0 to 100 scale): Rate 250 g/ha
winter wheat [2] = assay: Test E winter wheat; assay type: in vivo, Triticum aestivum; details: Postemergence, 0 to 100 scale
How it was run: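 Each compound, carried in a non-phytotoxic solvent blend including surfactant, was applied (postemergence: over the top of young plants at 1- to 4-leaf stage). Plants stayed in the greenhouse about 21 to 28 days before visual comparison with untreated controls.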

[3] = Rate 500 g/ha, 0 to 100 scale where 0 is no effect and 100 is complete control
[4] = Rate 1000 g/ha, 0 to 100 scale where 0 is no effect and 100 is complete control
[5] = Postemergence, Rate 125 g/ha, scale of 0 to 10 where 0 is no effect and 10 is complete control
[6] = Preemergence, Rate 62 g/ha, scale of 0 to 10 where 0 is no effect and 10 is complete control
[7] = Preemergence, Rate 125 g/ha, 10 is complete control
[8] = Preemergence, Rate 250 g/ha, scale 0 to 10, 0 is no effect, 10 is complete control
[9] = Preemergence, Rate 500 g/ha, scale 0 to 10 (0 no effect, 10 complete control)
[10] = Rate 62 g/ha, Postemergence, scale of 0 to 10 where 0 is no effect and 10 is complete control
[11] = Rate 250 g/ha, Postemergence, scale 0 to 10, 0 is no effect, 10 is complete control
[12] = Rate 500 g/ha, Postemergence, scale 0 to 10
[13] = Rate 1000 g/ha, 0 is no effect and 100 is complete control
[14] = Rate 500 g/ha, 0 is no effect, 100 is complete control
[15] = Rate 125 g/ha, 0 to 100 scale (0 no effect, 100 complete control)
[16] = Rate 125 g/ha, Postemergence, scale 0 to 10
[17] = Preemergence, Rate 500 g/ha, scale of 0 to 10 where 0 is no effect and 10 is complete control

CC1CCCCC1n1c(=O)on(C(=O)N(c2ccc(F)cc2F)C(C)C)c1=O (stereo not drawn) [Compound 172]
Wheat (winter) plant response rating (0 to 100 scale) (winter wheat [1]): 10 | Plant response rating, Wheat (winter) (winter wheat [1]; [3]): 20 | Plant response rating, Wheat (winter) (winter wheat [1]; [4]): 30 | Green foxtail plant response rating (0 to 100 scale) (green foxtail): 60 | Plant response rating, Green foxtail (green foxtail; [3]): 85 | Plant response rating, Green foxtail (green foxtail; [4]): 100 | Redroot pigweed plant response rating (pigweed; [5]): 0 | Redroot pigweed plant response rating (pigweed; [6]): 0 | Redroot pigweed plant response rating (0 to 10 scale) (pigweed; [7]): 6 | Redroot pigweed plant response rating (pigweed; [8]): 8 | Redroot pigweed plant response rating (pigweed; [9]): 8 | Redroot pigweed plant response rating (pigweed; [10]): 0 | Plant response rating, Redroot pigweed (pigweed; [11]): 3 | Redroot pigweed plant response rating (pigweed; [12]): 7 | Blackgrass plant response rating (0 to 100 scale) (blackgrass): 50 | Plant response rating, Blackgrass (blackgrass; [3]): 60 | Plant response rating, Blackgrass (blackgrass; [4]): 80 | I. Ryegrass plant response rating (0 to 100 scale) (Italian ryegrass): 30 | Plant response rating, I. Ryegrass (Italian ryegrass; [3]): 65 | Plant response rating, I. Ryegrass (Italian ryegrass; [4]): 80 | Rape plant response rating (rape; [5]): 0 | Rape plant response rating (rape; [6]): 0 | Rape plant response rating (0 to 10 scale) (rape; [7]): 0 | Rape plant response rating (rape; [8]): 0 | Rape plant response rating (rape; [9]): 5 | Rape plant response rating (rape; [10]): 0 | Plant response rating, Rape (rape; [11]): 0 | Rape plant response rating (rape; [12]): 0 | Wild oat plant response rating (0 to 100 scale) (wild oat): 30 | Plant response rating, Wild oat (wild oat; [3]): 40 | Plant response rating, Wild oat (wild oat; [4]): 50 | Sugarbeets plant response rating (sugar beet; [5]): 0 | Sugarbeets plant response rating (sugar beet; [6]): 0 | Sugarbeets plant response rating (0 to 10 scale) (sugar beet; [7]): 2 | Sugarbeets plant response rating (sugar beet; [8]): 5 | Sugarbeets plant response rating (sugar beet; [9]): 5 | Sugarbeets plant response rating (sugar beet; [10]): 0 | Plant response rating, Sugarbeets (sugar beet; [11]): 0 | Sugarbeets plant response rating (sugar beet; [12]): 0 | Barley (winter) plant response rating (0 to 100 scale) (winter barley): 40 | Plant response rating, Barley (winter) (winter barley; [3]): 40 | Plant response rating, Barley (winter) (winter barley; [4]): 20 | Plant response rating, Wheat (winter) (winter wheat [2]; [13]): 50 | Plant response rating, Wheat (winter) (winter wheat [2]; [14]): 40

Cc1nc(C)c(Cn2c(=O)on(C(=O)N(c3ccc(Cl)cc3)C(C)C)c2=O)s1 [Compound 191]
Plant response rating, Wheat (winter) (winter wheat [1]; [15]): 10 | Wheat (winter) plant response rating (0 to 100 scale) (winter wheat [1]): 30 | Plant response rating, Wheat (winter) (winter wheat [1]; [3]): 50 | Plant response rating, Green foxtail (green foxtail; [15]): 30 | Green foxtail plant response rating (0 to 100 scale) (green foxtail): 40 | Plant response rating, Green foxtail (green foxtail; [3]): 50 | Redroot pigweed plant response rating (pigweed; [6]): 0 | Redroot pigweed plant response rating (0 to 10 scale) (pigweed; [7]): 0 | Redroot pigweed plant response rating (pigweed; [8]): 1 | Redroot pigweed plant response rating (pigweed; [9]): 6 | Redroot pigweed plant response rating (pigweed; [10]): 0 | Redroot pigweed plant response rating (pigweed; [16]): 0 | Plant response rating (0 to 10; 0 is no effect, 10 is complete control), Redroot pigweed (pigweed; Rate 250 g/ha, Postemergence): 0 | Redroot pigweed plant response rating (pigweed; [12]): 0 | Plant response rating, Blackgrass (blackgrass; [15]): 10 | Blackgrass plant response rating (0 to 100 scale) (blackgrass): 20 | Plant response rating, Blackgrass (blackgrass; [3]): 30 | Plant response rating, I. Ryegrass (Italian ryegrass; [15]): 0 | I. Ryegrass plant response rating (0 to 100 scale) (Italian ryegrass): 0 | Plant response rating, I. Ryegrass (Italian ryegrass; [3]): 30 | Rape plant response rating (rape; [6]): 0 | Rape plant response rating (0 to 10 scale) (rape; [7]): 0 | Rape plant response rating (rape; [8]): 0 | Rape plant response rating (rape; [9]): 0 | Rape plant response rating (rape; [10]): 0 | Rape plant response rating (rape; [16]): 0 | Plant response rating (0 to 10; 0 is no effect, 10 is complete control), Rape (rape; Rate 250 g/ha, Postemergence): 0 | Rape plant response rating (rape; [12]): 0 | Plant response rating, Wild oat (wild oat; [15]): 30 | Wild oat plant response rating (0 to 100 scale) (wild oat): 40 | Plant response rating, Wild oat (wild oat; [3]): 50 | Sugarbeets plant response rating (sugar beet; [6]): 0 | Sugarbeets plant response rating (0 to 10 scale) (sugar beet; [7]): 0 | Sugarbeets plant response rating (sugar beet; [8]): 0 | Sugarbeets plant response rating (sugar beet; [9]): 0 | Sugarbeets plant response rating (sugar beet; [10]): 0 | Sugarbeets plant response rating (sugar beet; [16]): 0 | Plant response rating (0 to 10; 0 is no effect, 10 is complete control), Sugarbeets (sugar beet; Rate 250 g/ha, Postemergence): 0 | Sugarbeets plant response rating (sugar beet; [12]): 0 | Plant response rating, Barley (winter) (winter barley; [15]): 10 | Barley (winter) plant response rating (0 to 100 scale) (winter barley): 30 | Plant response rating, Barley (winter) (winter barley; [3]): 20 | Plant response rating, Wheat (winter) (winter wheat [2]; Rate 125 g/ha): 30 | Plant response rating, Wheat (winter) (winter wheat [2]; [14]): 60

CC(C)N(C(=O)n1oc(=O)n(Cc2ccco2)c1=O)c1ccc(F)cc1 [Compound 207]
Wheat (winter) plant response rating (0 to 100 scale) (winter wheat [1]): 60 | Plant response rating, Wheat (winter) (winter wheat [1]; [3]): 70 | Plant response rating, Wheat (winter) (winter wheat [1]; [4]): 70 | Green foxtail plant response rating (0 to 100 scale) (green foxtail): 80 | Plant response rating, Green foxtail (green foxtail; [3]): 90 | Plant response rating, Green foxtail (green foxtail; [4]): 100 | Redroot pigweed plant response rating (pigweed; [6]): 0 | Redroot pigweed plant response rating (0 to 10 scale) (pigweed; [7]): 0 | Redroot pigweed plant response rating (pigweed; [8]): 2 | Plant response rating, Redroot pigweed (pigweed; [17]): 8 | Redroot pigweed plant response rating (pigweed; [10]): 0 | Redroot pigweed plant response rating (pigweed; [16]): 0 | Plant response rating (0 to 10; 0 is no effect, 10 is complete control), Redroot pigweed (pigweed; Rate 250 g/ha, Postemergence): 0 | Redroot pigweed plant response rating (pigweed; [12]): 0 | Blackgrass plant response rating (0 to 100 scale) (blackgrass): 30 | Plant response rating, Blackgrass (blackgrass; [3]): 80 | Plant response rating, Blackgrass (blackgrass; [4]): 85 | I. Ryegrass plant response rating (0 to 100 scale) (Italian ryegrass): 40 | Plant response rating, I. Ryegrass (Italian ryegrass; [3]): 55 | Plant response rating, I. Ryegrass (Italian ryegrass; [4]): 30 | Rape plant response rating (rape; [6]): 0 | Rape plant response rating (0 to 10 scale) (rape; [7]): 0 | Rape plant response rating (rape; [8]): 0 | Plant response rating, Rape (rape; [17]): 2 | Rape plant response rating (rape; [10]): 0 | Rape plant response rating (rape; [16]): 0 | Plant response rating (0 to 10; 0 is no effect, 10 is complete control), Rape (rape; Rate 250 g/ha, Postemergence): 0 | Rape plant response rating (rape; [12]): 2 | Wild oat plant response rating (0 to 100 scale) (wild oat): 65 | Plant response rating, Wild oat (wild oat; [3]): 70 | Plant response rating, Wild oat (wild oat; [4]): 70 | Sugarbeets plant response rating (sugar beet; [6]): 0 | Sugarbeets plant response rating (0 to 10 scale) (sugar beet; [7]): 0 | Sugarbeets plant response rating (sugar beet; [8]): 0 | Plant response rating, Sugarbeets (sugar beet; [17]): 0 | Sugarbeets plant response rating (sugar beet; [10]): 0 | Sugarbeets plant response rating (sugar beet; [16]): 0 | Plant response rating (0 to 10; 0 is no effect, 10 is complete control), Sugarbeets (sugar beet; Rate 250 g/ha, Postemergence): 0 | Sugarbeets plant response rating (sugar beet; [12]): 2 | Barley (winter) plant response rating (0 to 100 scale) (winter barley): 65 | Plant response rating, Barley (winter) (winter barley; [3]): 70 | Plant response rating, Barley (winter) (winter barley; [4]): 80 | Plant response rating, Wheat (winter) (winter wheat [2]; [13]): 50 | Plant response rating, Wheat (winter) (winter wheat [2]; [14]): 30
